Results from US10294256B2, “Phosphine oxide alkyl amide substituted heteroaryl compounds as modulators of IL-12, IL-23 and/or IFN alpha responses” (BRISTOL-MYERS SQUIBB COMPANY, priority 2016, dated 2019).
pIC50: −log10 of the molar value. Like-named read-outs stand apart in the source and are kept apart here.

Legend:
[1] = target: recombinant human His-tagged Tyk2 pseudokinase domain (His-TVMV-Tyk2, 575-869) (Homo sapiens, UniProt P29597); assay: Probe Displacement Assay (HTRF Format); conditions: 0.5 nM Tyk2 pseudokinase domain, 1 h room temperature, read-out: Binding IC50
Experimental: To 10 μL 26 nM fluorescein labeled probe plus 0.2 nM anti-6×His-terbium labeled antibody (Medarex, labeled by Cisbio) in assay buffer (20 mM Hepes pH 7.5, 150 mM NaCl, 10 mM MgCl2, 2 mM DTT, 50 μg/mL BSA, and 0.015% Brij 35) was added 10 μL recombinant human His-tagged Tyk2 pseudokinase domain (His-TVMV-Tyk2, 575-869) to a final concentration of 0.5 nM. After 1 h at room temperature, the HTRF signal (ratio of fluorescence intensities at emission wavelengths for fluorescein acceptor at 520 nm and terbium donor at 495 nm) was measured on an Envision Plate Reader. Percent inhibition was calculated by comparison to a control without inhibitor and a control without protein.
Protein Sequence of recombinant His-tagged Tyk2 (575-869): […]

[2] = tested on: IL-23 stimulated Kit225 T cells with STAT-dependent luciferase reporter; assay: Kit225 T Cell Assay, IL-23 stimulated STAT-dependent luciferase reporter; type: cell-based, human
Experimental: (§1) Kit225 T cells with a stably-integrated STAT-dependent luciferase reporter were plated in RPMI (Gibco) containing 10% heat-inactivated FBS (Gibco) and 100 U/mL PenStrep (Gibco). The cells were then stimulated with either 20 ng/mL human recombinant IL-23 or 200 U/mL human recombinant IFNα (PBL InterferonSource) for 5-6 hours. Luciferase expression was measured using the STEADY-GLO® Luciferase Assay System (Promega) according to the manufacturer's instructions. Inhibition data were calculated by comparison to no inhibitor control wells for 0% inhibition and non-stimulated control wells for 100% inhibition.

[3] = tested on: IFNα stimulated Kit225 T cells with STAT-dependent luciferase reporter; assay: Kit225 T Cell Assay, IFNα stimulated STAT-dependent luciferase reporter; type: cell-based, human
Experimental: as §1

[4] = KIT225, 20 ng/mL human recombinant IL-23, 5-6 hours, luciferase reporter, read-out: IL23 Kit 225 IC50
[5] = KIT225, 200 U/mL human recombinant IFNα, 5-6 hours, luciferase reporter, read-out: IFN[…] Kit 225 IC50

Sequence of recombinant human His-tagged Tyk2 pseudokinase domain (His-TVMV-Tyk2, 575-869) (P29597 with tags, fused parts or gaps): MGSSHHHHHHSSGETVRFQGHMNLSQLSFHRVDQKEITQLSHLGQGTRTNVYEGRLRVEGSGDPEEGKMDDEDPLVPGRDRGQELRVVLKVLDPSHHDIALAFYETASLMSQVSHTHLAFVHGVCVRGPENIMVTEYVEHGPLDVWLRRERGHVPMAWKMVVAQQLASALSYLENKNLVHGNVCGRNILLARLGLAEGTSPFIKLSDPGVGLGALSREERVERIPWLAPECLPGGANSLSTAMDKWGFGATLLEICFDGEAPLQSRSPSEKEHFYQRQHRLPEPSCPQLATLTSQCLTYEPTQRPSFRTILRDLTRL

SMILES: [2H]C([2H])([2H])NC(=O)c1nnc(Nc2cc(C3CC3)ccn2)cc1Nc1ccccc1P(C)(C)=O [Example 1]
- pIC50 [1]: 8.47
- pIC50 [2, 4]: 6.42
- pIC50 [3, 5]: 6.62

SMILES: [2H]C([2H])([2H])NC(=O)c1nnc(NC(=O)C2CC2)cc1Nc1ccccc1P(C)(C)=O [Example 2]
- pIC50 [1]: 8.13
- pIC50 [2, 4]: 5.74
- pIC50 [3, 5]: 5.50

SMILES: [2H]C([2H])([2H])NC(=O)c1nnc(Nc2cc(C)nc(C)n2)cc1Nc1ccccc1P(C)(C)=O [Example 3]
- pIC50 [1]: 8.80
- pIC50 [2, 4]: 5.46
- pIC50 [3, 5]: 5.81

SMILES: [2H]C([2H])([2H])NC(=O)c1nnc(Nc2ccc(OC)nn2)cc1Nc1ccccc1P(C)(C)=O [Example 4]
- pIC50 [1]: 8.00
- pIC50 [2, 4]: 5.59
- pIC50 [3, 5]: 5.04

SMILES: [2H]C([2H])([2H])NC(=O)c1nnc(Nc2ccc(C3CC3)cn2)cc1Nc1ccccc1P(C)(C)=O [Example 5]
- pIC50 [1]: 8.28
- pIC50 [2, 4]: 6.41
- pIC50 [3, 5]: 6.47

SMILES: [2H]C([2H])([2H])NC(=O)c1nnc(Nc2ccc(C(C)(C)O)cn2)cc1Nc1ccccc1P(C)(C)=O [Example 6]
- pIC50 [1]: 8.66
- pIC50 [2, 4]: 5.51
- pIC50 [3, 5]: 6.37

SMILES: [2H]C([2H])([2H])NC(=O)c1nnc(Nc2ccc(N3CCOCC3)cn2)cc1Nc1ccccc1P(C)(C)=O [Example 7]
- pIC50 [1]: 7.89
- pIC50 [2, 4]: 5.84
- pIC50 [3, 5]: 6.10

SMILES: [2H]C([2H])([2H])NC(=O)c1nnc(Nc2ccn(C)n2)cc1Nc1ccccc1P(C)(C)=O [Example 8]
- pIC50 [1]: 7.92
- pIC50 [2, 4]: 5.43
- pIC50 [3, 5]: 5.75

SMILES: [2H]C([2H])([2H])NC(=O)c1nnc(NC(=O)C2CC2)cc1Nc1ncccc1P(C)(C)=O [Example 9]
- pIC50 [1]: 8.85
- pIC50 [2, 4]: 6.55
- pIC50 [3, 5]: 6.29

SMILES: [2H]C([2H])([2H])NC(=O)c1nnc(Nc2cc(C3CC3)ccn2)cc1Nc1ncccc1P(C)(C)=O [Example 12]
- pIC50 [1]: 9.13
- pIC50 [2, 4]: 7.04
- pIC50 [3, 5]: 6.84

SMILES: [2H]C([2H])([2H])NC(=O)c1nnc(Nc2ccc(OC(F)(F)F)cn2)cc1Nc1ncccc1P(C)(C)=O [Example 13]
- pIC50 [1]: 9.37
- pIC50 [2, 4]: 7.36
- pIC50 [3, 5]: 7.66

SMILES: [2H]C([2H])([2H])NC(=O)c1nnc(Nc2ccccn2)cc1Nc1ncccc1P(C)(C)=O [Example 14]
- pIC50 [1]: 9.10
- pIC50 [2, 4]: 6.67
- pIC50 [3, 5]: 6.90

SMILES: [2H]C([2H])([2H])NC(=O)c1nnc(Nc2ccc(F)cn2)cc1Nc1ncccc1P(C)(C)=O [Example 15]
- pIC50 [1]: 9.27
- pIC50 [2, 4]: 6.94
- pIC50 [3, 5]: 7.32

SMILES: [2H]C([2H])([2H])NC(=O)c1nnc(Nc2ccc(C(C)(C)O)cn2)cc1Nc1ncccc1P(C)(C)=O [Example 16]
- pIC50 [1]: 9.54
- pIC50 [2, 4]: 5.92
- pIC50 [3, 5]: 6.17

SMILES: [2H]C([2H])([2H])NC(=O)c1nnc(Nc2ccc(C3CC3)cn2)cc1Nc1ncccc1P(C)(C)=O [Example 17]
- pIC50 [1]: 9.57
- pIC50 [2, 4]: 7.24
- pIC50 [3, 5]: 7.37

SMILES: [2H]C([2H])([2H])NC(=O)c1nnc(Nc2cccc(C)n2)cc1Nc1ncccc1P(C)(C)=O [Example 18]
- pIC50 [1]: 9.36
- pIC50 [2, 4]: 7.24
- pIC50 [3, 5]: 7.48

SMILES: [2H]C([2H])([2H])NC(=O)c1nnc(NC(=O)OCC)cc1Nc1ncccc1P(C)(C)=O [Example 19]
- pIC50 [1]: 8.01
- pIC50 [2, 4]: 6.09
- pIC50 [3, 5]: 5.38

SMILES: [2H]C([2H])([2H])NC(=O)c1nnc(Nc2cc(COC)ccn2)cc1Nc1ncccc1P(C)(C)=O [Example 20]
- pIC50 [1]: 9.24
- pIC50 [2, 4]: 7.17
- pIC50 [3, 5]: 7.30

SMILES: [2H]C([2H])([2H])NC(=O)c1nnc(Nc2cc(C)ccn2)cc1Nc1ncccc1P(C)(C)=O [Example 21]
- pIC50 [1]: 9.21
- pIC50 [2, 4]: 7.72
- pIC50 [3, 5]: 7.30

SMILES: [2H]C([2H])([2H])NC(=O)c1nnc(Nc2cccc(F)n2)cc1Nc1ncccc1P(C)(C)=O [Example 22]
- pIC50 [1]: 10.43
- pIC50 ([2]; Homo sapiens, KIT225, read-out: IL23 Kit 225 IC50): 7.40
- pIC50 ([3]; Homo sapiens, KIT225, read-out: IFN[…] Kit 225 IC50): 7.82

SMILES: [2H]C([2H])([2H])NC(=O)c1nnc(Nc2ccn(C)n2)cc1Nc1ncccc1P(C)(C)=O [Example 23]
- pIC50 [1]: 8.70
- pIC50 [2, 4]: 5.94
- pIC50 [3, 5]: 6.18

SMILES: [2H]C([2H])([2H])NC(=O)c1nnc(Nc2cccc(OC)n2)cc1Nc1ncccc1P(C)(C)=O [Example 24]
- pIC50 [1]: 9.01
- pIC50 [2, 4]: 7.08
- pIC50 [3, 5]: 7.48

SMILES: [2H]C([2H])([2H])NC(=O)c1nnc(Nc2cc(F)ccn2)cc1Nc1ncccc1P(C)(C)=O [Example 25]
- pIC50 [1]: 9.24
- pIC50 [2, 4]: 6.88
- pIC50 [3, 5]: 7.05

SMILES: [2H]C([2H])([2H])NC(=O)c1nnc(NC(=O)[C@H]2CC2(C)C)cc1Nc1ncccc1P(C)(C)=O [Example 27]
- pIC50 [1]: 7.89
- pIC50 [2, 4]: 4.90
- pIC50 [3, 5]: 5.34

SMILES: [2H]C([2H])([2H])NC(=O)c1nnc(NC(=O)C2CC2(C)C)cc1Nc1ncccc1P(C)(C)=O (stereo not drawn) [Example 28]
- pIC50 [1]: 7.77
- pIC50 [2, 4]: 5.20
- pIC50 [3, 5]: 5.20

SMILES: [2H]C([2H])([2H])NC(=O)c1nnc(Nc2ccc(C)c(C)n2)cc1Nc1ncccc1P(C)(C)=O [Example 29]
- pIC50 [1]: 9.27
- pIC50 [2, 4]: 7.21
- pIC50 [3, 5]: 7.64

SMILES: [2H]C([2H])([2H])NC(=O)c1nnc(Nc2ccc(C)cn2)cc1Nc1ncccc1P(C)(C)=O [Example 30]
- pIC50 [1]: 9.25
- pIC50 [2, 4]: 6.92
- pIC50 [3, 5]: 7.49

SMILES: [2H]C([2H])([2H])NC(=O)c1nnc(Nc2ccc(F)c(C)n2)cc1Nc1ncccc1P(C)(C)=O [Example 31]
- pIC50 [1]: 9.27
- pIC50 [2, 4]: 7.34
- pIC50 [3, 5]: 7.27

SMILES: [2H]C([2H])([2H])NC(=O)c1nnc(NC(=O)C2CC23CC3)cc1Nc1ncccc1P(C)(C)=O (stereo not drawn) [Example 33]
- pIC50 [1]: 8.54
- pIC50 [2, 4]: 5.43
- pIC50 [3, 5]: 5.83

SMILES: [2H]C([2H])([2H])NC(=O)c1nnc(Nc2ccc(C(C)(C)O)c(F)n2)cc1Nc1ncccc1P(C)(C)=O [Example 34]
- pIC50 [1]: 9.07
- pIC50 [2, 4]: 5.87
- pIC50 [3, 5]: 6.46

SMILES: [2H]C([2H])([2H])NC(=O)c1nnc(Nc2ccc(C(C)(C)N)cn2)cc1Nc1ncccc1P(C)(C)=O [Example 35]
- pIC50 [1]: 8.92
- pIC50 [2, 4]: 5.75
- pIC50 [3, 5]: 5.64

SMILES: [2H]C([2H])([2H])NC(=O)c1nnc(Nc2cc(Cl)c(C(C)(C)O)cn2)cc1Nc1ncccc1P(C)(C)=O [Example 36]
- pIC50 [1]: 9.28
- pIC50 [2, 4]: 6.03
- pIC50 [3, 5]: 6.04

SMILES: [2H]C([2H])([2H])NC(=O)c1nnc(Nc2ccc(Cl)cn2)cc1Nc1ncccc1P(C)(C)=O [Example 37]
- pIC50 [1]: 9.42
- pIC50 [2, 4]: 7.28
- pIC50 [3, 5]: 7.13

SMILES: [2H]C([2H])([2H])NC(=O)c1nnc(Nc2ccc(C(F)(F)F)cn2)cc1Nc1ncccc1P(C)(C)=O [Example 39]
- pIC50 [1]: 9.47
- pIC50 [2, 4]: 7.23
- pIC50 [3, 5]: 6.66

SMILES: [2H]C([2H])([2H])NC(=O)c1nnc(Nc2cccc(C(F)(F)F)n2)cc1Nc1ncccc1P(C)(C)=O [Example 40]
- pIC50 [1]: 9.34
- pIC50 [2, 4]: 6.59
- pIC50 [3, 5]: 6.86

SMILES: [2H]C([2H])([2H])NC(=O)c1nnc(Nc2ccc(C(O)(C(F)(F)F)C(F)(F)F)cn2)cc1Nc1ncccc1P(C)(C)=O [Example 41]
- pIC50 [1]: 9.04
- pIC50 [2, 4]: 6.49
- pIC50 [3, 5]: 6.69

SMILES: [2H]C([2H])([2H])NC(=O)c1nnc(Nc2ccc(N3CCOCC3)cn2)cc1Nc1ncccc1P(C)(C)=O [Example 42]
- pIC50 [1]: 9.21
- pIC50 [2, 4]: 6.53
- pIC50 [3, 5]: 6.58
